Assay results as given in patent publication US7790717B2, “Spiro-oxazolidinone compounds and their use as metabotropic glutamate receptor potentiators” (AstraZeneca AB, priority 2006, dated 2010).

Biological target: T1, human mGluR2 (Homo sapiens, UniProt Q14416)
T1 construct: expressed in transfected cells; host or cells: CHO cells, stably transfected; membrane preparation
Test: [35S]-GTPγS binding assay of mGluR2 receptor activation (allosteric activator activity)
Type: biochemical
Settings: membranes from CHO cells stably expressing human mGluR2; in presence of 1 μM glutamate
Procedure: A [^35S]-GTPγS binding assay was used to functionally assay mGluR2 receptor activation. The allosteric activator activity of compounds at the human mGluR2 receptor were measured using a [^35S]-GTPγS binding assay with membranes prepared from CHO cells which stably express the human mGluR2. The assay is based upon the principle that agonists bind to G-protein coupled receptors to stimulate GDP-GTP exchange at the G-protein. Since [^35S]-GTPγS is a non-hydrolyzable GTP analog, it can be used to provide an index of GDP-GTP exchange and, thus, receptor activation. The GTPγS binding assay therefore provides a quantitative measure of receptor activation.
Membranes were prepared from CHO cells stably transfected with human mGluR2. Membranes (30 μg protein) were incubated with test compound (3 nM to 300 μM) for 15 minutes at room temperature prior to the addition of 1 μM glutamate, and incubated for 30 min at 30° C. in 500 μL assay buffer (20 mM HEPES, 100 mM NaCl, 10 mM MgCl2), containing 30 μM GDP and 0.1 nM [^35S]-GTPγS (1250 Ci/mmol). Reactions were carried out in triplicate in 2 mL polypropylene 96-well plates. Reactions were terminated by vacuum filtration using a Packard 96-well harvester and Unifilter-96, GF/B filter microplates. The filter plates were washed 4×1.5 mL with ice-old wash buffer (10 mM sodium phosphate buffer, pH 7.4). The filter plates were dried and 35 μL of scintillation fluid (Microscint 20) was added to each well. The amount of radioactivity bound was determined by counting plates on a Packard TopCount. Data was analyzed using GraphPad Prism, and […] and Emax values (relative to the maximum glutamate effect) were calculated using non-linear regression.

T1 sequence (Q14416 19-872): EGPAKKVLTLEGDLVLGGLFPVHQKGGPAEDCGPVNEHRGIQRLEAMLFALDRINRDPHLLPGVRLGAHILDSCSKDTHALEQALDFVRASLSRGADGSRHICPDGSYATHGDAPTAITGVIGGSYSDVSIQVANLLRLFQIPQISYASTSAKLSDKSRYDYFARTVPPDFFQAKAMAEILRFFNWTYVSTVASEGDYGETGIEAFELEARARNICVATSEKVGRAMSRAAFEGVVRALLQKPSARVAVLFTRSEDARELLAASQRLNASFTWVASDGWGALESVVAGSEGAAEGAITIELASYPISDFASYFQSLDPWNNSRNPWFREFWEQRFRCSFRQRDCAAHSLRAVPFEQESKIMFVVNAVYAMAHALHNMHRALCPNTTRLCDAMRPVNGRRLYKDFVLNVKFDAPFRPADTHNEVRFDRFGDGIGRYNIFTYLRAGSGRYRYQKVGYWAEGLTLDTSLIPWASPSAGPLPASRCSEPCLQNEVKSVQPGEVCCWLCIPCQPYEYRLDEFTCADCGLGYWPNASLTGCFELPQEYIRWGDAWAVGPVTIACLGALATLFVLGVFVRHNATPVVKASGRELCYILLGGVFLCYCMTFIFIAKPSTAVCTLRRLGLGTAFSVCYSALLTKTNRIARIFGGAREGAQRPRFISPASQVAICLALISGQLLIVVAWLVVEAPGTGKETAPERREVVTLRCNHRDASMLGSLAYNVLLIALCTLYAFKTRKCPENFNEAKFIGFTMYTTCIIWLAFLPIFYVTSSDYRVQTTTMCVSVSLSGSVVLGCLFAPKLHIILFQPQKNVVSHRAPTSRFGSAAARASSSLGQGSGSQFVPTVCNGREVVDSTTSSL

SMILES | EC50 [nM]
O=C1OC2(CCCCC2)CN1Cc1ccc(-c2ccccc2CN2CCOCC2)cc1 [Example 1.1, 3-(2′-Morpholin-4-ylmethyl-biphenyl-4-ylmethyl)-1-oxa-3-aza-spiro[4.5]decan-2-one] | 326
O=C1OC2(CCCCC2)CN1Cc1ccc(-c2ccc(Oc3ccccc3)cc2)cc1 [Example 1.6, 3-(4′-Phenoxy-biphenyl-4-ylmethyl)-1-oxa-3-aza-spiro[4.5]decan-2-one] | 14
O=C1OC2(CCCCC2)CN1Cc1ccc(-c2ccc(NCCN3CCOCC3)nc2)cc1 [Example 1.30, 3-{4-[6-(2-Morpholin-4-yl-ethylamino)-pyridin-3-yl]-benzyl}-1-oxa-3-aza-spiro[4.5] decan-2-one] | 1000
O=C1OC2(CCC3(CC2)OCCO3)CN1Cc1ccc(-c2ccc(F)cc2)cc1 [Example 1.49, 3-(4′-Fluoro-biphenyl-4-ylmethyl)-1,9,12-trioxa-3-aza-dispiro[4.2.4.2]tetradecan-2-one] | 381
O=C1OC2(CCCCC2)CN1Cc1ccc(-c2ccccc2)cc1 [Example 3.2, 3-Biphenyl-4-ylmethyl-1-oxa-3-aza-spiro[4.5]decan-2-one] | 95
